From patent publication US11931327B2, “Drug for retinal degenerative disease associated with photoreceptor degeneration” (Daiichi Sankyo Company, Limited, priority 2017, dated 2024)
pEC50: −log10 of the molar value.

Legend:
[1] = test system: transgenic zebrafish Tg (rho: NTR-NanoLuc, my17: DsRed2); assay: animal or person; settings: for rod-cell regeneration induction activity compared to the DMSO control: Examples 3 and 4, TTNPB 0.3, 1, 3, 10 and 30 μM, N=4, RA and BMS493 N=8, Dunnett's test; for pEC50: Danio rerio, 48 h, read-out: EC50 of rod-cell regeneration induction (Activation (% of control) 50%); for rod-cell regeneration induction activity: Example 6, various RAR agonists
From the text: First, the present inventors constructed a model for evaluating induction of rod cell regeneration. […] Transgenic zebrafish Tg (rho: NTR-NanoLuc, my17: DsRed2), in which a fluorescent protein, DsRed2, which is cardiac-tissue specifically expressed by cardiomyocyte-specific my17 promoter, can be simply detected by using dsRed2 as a marker under a fluorescence stereomicroscope. In the transgenic zebrafish, in addition to cardiac tissue specific expression of DsRed2, a reductase, i.e., nitroreductase (NTR), and a photoprotein, i.e., NanoLuc fusion protein (NTR-NanoLuc), are expressed by a rod-cell specific rho promoter, in a rod-cell specific manner. […] However, if, a prodrug, metronidazole, is added, non-toxic metronidazole is converted to a toxic radical by NTR. […] After rod cells are ablated by treatment with metronidazole, the transgenic zebrafish were washed with rearing water to remove the toxic radical. […] In the transgenic zebrafish, rod cells can be quantitatively determined by measuring the amount of luminescence derived from rod-cell-specific NanoLuc expression. After the rod cells are ablated, the transgenic zebrafish are exposed to a test compound. The activity of the test compound to induce rod-cell regeneration can be quantitatively evaluated by measuring the amount of luminescence derived from NanoLuc and specific to rod cells.
1) On the day before collection of eggs, a pair of male and female zebrafish, i.e., a transgenic fish Tg (rho: NTR-NanoLuc, my17: DsRed2) and a wild type, were placed in a tank for mating and isolated by a divider.
2) The next morning (8:00-11:00), the divider was removed to allow them to mate with each other. Fertilized eggs were collected. In the evening (16:00-18:00) of the same day, only normally developed fertilized eggs were screened and raised in a plate for growth.
3) Day 3 after fertilization, juvenile fish were transferred to rearing water, which contained 10 mM metronidazole (Sigma-Aldrich, Japan) and 1% DMSO (Wako Pure Chemical Industries Ltd.), (prepared by dissolving 60 mg of instant ocean (Napco Limited (Japan)) in 1 L of distilled water), and raised in dark conditions for 24 hours. In this manner, ablation was specifically applied to the rod cells of the juvenile fish. In contrast, non-ablated juvenile fish, which were to be used as a control, were transferred to a tank containing rearing water, which contained a 1% DMSO solution, and raised.
5) Ablated juvenile fish of 4 days after fertilization were washed well with Egg water and dispensed in wells of the assay plate containing a compound together with 100 μL of Egg water, such that 2 juvenile fish individuals were present per well.
6) After the juvenile fish were raised for 2 days, […] of Egg water was removed and ethyl 3-aminobenzoate methanesulfonate (Sigma-Aldrich Japan; 0.4 mg/mL, 10 μL) was added to euthanize the fish.
7) Nano-Glo (registered trademark) Luciferase assay Substrate (Promega Corporation) was added to Nano-Glo (registered trademark) Luciferase assay buffer (Promega Corporation) in a ratio of 1:50 and 100 μL of the resultant solution was added to each of the wells.
8) Shaking was carried out by use of BIO-Mixer (Biotech Japan Co., Ltd.) for one hour and luminescence of NanoLuc (registered trademark) was measured by use of EnVision (PerkinElmer Co., Ltd., Japan).
Individual concentration groups were compared to the DMSO control group by the Dunnett's test.

Human RARα = target: T1, Human RARα (Homo sapiens, UniProt P10276); assay: RAR agonistic activity, luciferase reporter (3xDR5: luc) in HEK293A cells; settings: concentration exhibiting luminescence of 1000% of Negative control; 24 hours exposure; N=4
T1 sequence (P10276 1-462): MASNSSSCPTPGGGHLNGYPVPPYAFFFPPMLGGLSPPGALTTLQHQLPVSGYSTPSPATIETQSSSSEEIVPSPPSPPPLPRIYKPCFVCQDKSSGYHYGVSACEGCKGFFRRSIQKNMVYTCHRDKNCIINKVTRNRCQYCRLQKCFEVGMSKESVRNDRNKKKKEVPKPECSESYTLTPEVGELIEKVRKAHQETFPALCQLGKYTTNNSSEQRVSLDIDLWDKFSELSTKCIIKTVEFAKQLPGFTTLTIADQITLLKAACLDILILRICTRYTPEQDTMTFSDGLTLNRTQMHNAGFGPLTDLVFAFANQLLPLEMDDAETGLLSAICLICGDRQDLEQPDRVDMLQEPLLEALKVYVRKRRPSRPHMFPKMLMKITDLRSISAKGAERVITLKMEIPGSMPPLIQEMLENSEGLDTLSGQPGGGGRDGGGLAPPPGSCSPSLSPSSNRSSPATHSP
Description: (§1) RAR agonistic activity was measured in the following procedure.
(§2) 1) HEK293A cells (Invitrogen), which functionally co-express Human RARα, Human RARβ and Human RARγ, were prepared by adding Lipofectamine (registered trademark) 2000 Transfection Reagent (Thermo Fisher Scientific) to an RAR synthetic response element luciferase reporter construct (3xDR5: luc) in accordance with the method described in the manual attached to the kit.
(§3) 3) Twenty-four hours after exposure to a compound, luminescence from the cells was measured by using PICCA JEAN (registered trademark) luminescence kit (TOYO B-Net CO., LTD.) and EnVision (PerkinElmer Corporation, Japan) (N=4).
(§4) In evaluation of RAR agonistic activity, provided that the measurement value (Negative control) of luminescence from the cells with no addition of a compound was determined as 100%, the RAR agonistic activity (%) of a test substance was calculated in accordance with the following expression. The average value thereof was plotted versus the concentration of a test substance. RAR agonistic activity (%)=(measurement value of sample well÷average value of Negative control)×100

Human RARβ = target: T2, Human RARβ (Homo sapiens, UniProt P10826); assay: as above; settings: concentration exhibiting luminescence of 1000% of Negative control; 24 hours exposure; N=4
T2 sequence (P10826 1-448 isoform P10826-2): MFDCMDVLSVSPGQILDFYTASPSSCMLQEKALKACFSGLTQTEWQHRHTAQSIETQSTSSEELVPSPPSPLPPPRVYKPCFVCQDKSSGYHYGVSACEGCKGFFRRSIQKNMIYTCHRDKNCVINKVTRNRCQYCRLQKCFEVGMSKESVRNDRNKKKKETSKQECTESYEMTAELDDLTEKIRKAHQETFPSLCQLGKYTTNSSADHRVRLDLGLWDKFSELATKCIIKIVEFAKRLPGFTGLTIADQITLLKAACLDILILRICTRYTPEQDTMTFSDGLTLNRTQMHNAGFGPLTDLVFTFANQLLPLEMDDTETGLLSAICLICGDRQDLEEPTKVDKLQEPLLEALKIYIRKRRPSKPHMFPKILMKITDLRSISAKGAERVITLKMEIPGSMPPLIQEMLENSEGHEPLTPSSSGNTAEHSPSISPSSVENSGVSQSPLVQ
Description: as §1, §2, §3, §4

Human RARγ = target: T3, Human RARγ (Homo sapiens, UniProt P13631); assay: as above; settings: concentration exhibiting luminescence of 500% of Negative control; 24 hours exposure; N=4
T3 sequence (P13631 1-454): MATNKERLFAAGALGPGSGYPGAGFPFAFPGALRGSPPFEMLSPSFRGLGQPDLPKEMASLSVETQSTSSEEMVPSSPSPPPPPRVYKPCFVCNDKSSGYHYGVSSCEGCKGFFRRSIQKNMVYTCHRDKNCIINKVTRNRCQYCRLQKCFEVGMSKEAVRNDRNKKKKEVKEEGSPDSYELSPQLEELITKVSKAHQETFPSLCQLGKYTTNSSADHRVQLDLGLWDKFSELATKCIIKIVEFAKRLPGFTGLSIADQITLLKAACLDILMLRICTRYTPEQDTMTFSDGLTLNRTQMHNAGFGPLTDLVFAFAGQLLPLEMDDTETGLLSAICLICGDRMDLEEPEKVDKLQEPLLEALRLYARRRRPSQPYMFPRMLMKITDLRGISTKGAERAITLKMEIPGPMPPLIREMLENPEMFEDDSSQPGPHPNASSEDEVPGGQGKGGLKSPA
Description: as §1, §2, §3, §4

[2] = test system: pathological zebrafish 2: Tg (rho: NTR-NanoLuc, my17: DsRed2) crossed with Tg (rho: hRHO (Q344X), omp: EGFP); assay: Rod-cell regeneration effect in retinitis pigmentosa model, quantitative evaluation by NanoLuc luminescence; format: in vivo; settings: N=8 per concentration; Dunnett's test; FIG. 7
Description: Pathological model zebrafish, in which rod-cell regeneration can be quantitatively evaluated, were newly prepared using zebrafish known as a retinitis pigmentosa model. The effect of compounds was quantitatively verified in accordance with the following procedure.
1) Quantitative evaluation of rod-cell regeneration was carried out by zebrafish (pathological zebrafish 2) obtained by crossing transgenic Tg (rho: NTR-NanoLuc, my17: DsRed2) and Tg (rho: hRHO (Q344X), omp: EGFP).
Fertilized eggs were collected.
A screening test was repeated 8 times (N=8) at each concentration.
2) After shaking for one hour using BIO-Mixer, the luminescence from NanoLuc (registered trademark) was measured by use of EnVision.

[3] = test system: transgenic zebrafish Tg (rho: NTR-NanoLuc, my17: DsRed2); assay: Validation: ablation of rod cells by metronidazole, luminescence derived from rod cells; format: in vivo; settings: 10 mM for 24 hours, day 3 after fertilization
Description: Thereafter, rod-cells are gradually regenerated in the zebrafish.
Day 3 after fertilization, the transgenic zebrafish were treated with 10 mM metronidazole (Sigma-Aldrich Japan) for 24 hours and euthanized by adding ethyl 3-aminobenzoate methanesulfonate (Sigma-Aldrich Japan). Luminescence derived from rod cells was measured in accordance with the manual attached to Nano-Glo (registered trademark) Luciferase Assay System (Promega Corporation). […] The resultant transgenic ablated fish were washed with rearing water, and a toxic radical derived from metronidazole was removed. Luminescence derived from the rod cells after 24 and 48 hours was measured. As a result, it was confirmed that rod cells are gradually regenerated over 48 hours (FIG. 3).

Compound	RARα EC1000 (Human RARα)	RARβ EC1000 (Human RARβ)	RARγ EC500 (Human RARγ)	pEC50 [1]	also measured
4-[(1E)-2-[5,6-dihydro-5,5-dimethyl-8-(2-phenylethynyl)-2naphthalenyl]ethenyl]benzoate [BMS493]					precipitation of compound in the assay ([1]; 30 μM): precipitated; toxicity to fish ([1]; 100 μM, cardiac arrest): all fish died; rod-cell regeneration induction activity compared to the DMSO control [1]: did not show rod-cell regeneration induction activity
COc1ccc(-c2ccc3cc(C(=O)O)ccc3c2)cc1C12CC3CC(CC(C3)C1)C2 [Adapalene]	12 nM	6.9 nM	54 nM	< 6.00	Activation (% of control) ([1]; at 1000 nM (the maximum concentration evaluated), DMSO = 0%, 1 μM TTNPB = 100%): 39%
CC1=C(/C=C/C(C)=C/C=C/C(C)=C/C(=O)O)C(C)(C)CCC1 [All-trans Retinoic acid]					rod-cell regeneration induction activity compared to the DMSO control [1]: significant rod-cell regeneration induction activity in a concentration-dependent manner
CC1(C)CCC(C)(C)c2cc(Cn3cccn3)c(/C=C/c3ccc(C(=O)O)cc3)cc21 [Palovarotene]				5.92	
CCOC(=O)c1ccc(C(=O)Nc2ccc3c(c2)C(C)(C)CCC3(C)C)cc1 [Tamibarotene ethyl ester]	21.8 nM	514 nM	714 nM	8.31	rod-cell regeneration induction activity [1]: strong rod-cell regeneration induction activity
COC(=O)c1ccc(C(=O)Nc2ccc3c(c2)C(C)(C)CCC3(C)C)cc1 [Tamibarotene methyl ester]	0.91 nM	29.1 nM	72.8 nM	7.07	
CC1(C)CCC(C)(C)c2cc(NC(=O)c3ccc(C(=O)O)cc3)ccc21 [Tamibarotene]		79 nM	248 nM	8.04	regeneration of rod cells in the retinitis pigmentosa model (luminescence, words) [2]: statistically significant regeneration of rod cells in a dose dependent manner; rod-cell regeneration induction activity [1]: strong rod-cell regeneration induction activity
CCOC(=O)c1ccc(C#Cc2ccc3c(c2)C(C)(C)CCS3)nc1 [Tazarotene]				6.40	
CC1(C)CCSc2ccc(C#Cc3ccc(C(=O)O)cn3)cc21 [Tazarotenic acid]	12 nM	4.4 nM	48 nM	6.10	
Cc1ncc([N+](=O)[O-])n1CCO [metronidazole]					number of rod cells remaining after ablation (luminescence) [3]: 13.5%
